The values that follow come from ChEMBL document CHEMBL1134008, “Cis- and trans-N-benzyl-octahydrobenzo[g]quinolines. Adrenergic and dopaminergic activity studies” (Bioorg Med Chem Lett, 2001).

Holding throughout (format): cell membranes, Membrane
Assay [1] addresses T1, Adrenergic receptor alpha-1 (Rattus norvegicus, UniProt P15823+P23944+P43140).
T1 sequence (P15823 whole entry): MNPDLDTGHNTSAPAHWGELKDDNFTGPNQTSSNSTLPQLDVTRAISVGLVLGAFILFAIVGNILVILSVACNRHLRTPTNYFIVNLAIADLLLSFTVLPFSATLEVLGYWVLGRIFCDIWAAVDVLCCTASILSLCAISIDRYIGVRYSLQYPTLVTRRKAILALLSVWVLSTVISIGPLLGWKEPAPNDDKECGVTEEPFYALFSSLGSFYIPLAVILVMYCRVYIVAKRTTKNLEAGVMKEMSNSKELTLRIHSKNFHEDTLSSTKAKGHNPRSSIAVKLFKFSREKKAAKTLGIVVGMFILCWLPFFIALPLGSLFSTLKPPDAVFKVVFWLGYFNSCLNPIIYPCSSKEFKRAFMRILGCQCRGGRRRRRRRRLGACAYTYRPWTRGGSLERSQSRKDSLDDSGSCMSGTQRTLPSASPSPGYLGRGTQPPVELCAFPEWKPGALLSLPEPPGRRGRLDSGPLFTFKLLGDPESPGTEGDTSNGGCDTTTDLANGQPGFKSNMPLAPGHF
T1 sequence (P23944 whole entry): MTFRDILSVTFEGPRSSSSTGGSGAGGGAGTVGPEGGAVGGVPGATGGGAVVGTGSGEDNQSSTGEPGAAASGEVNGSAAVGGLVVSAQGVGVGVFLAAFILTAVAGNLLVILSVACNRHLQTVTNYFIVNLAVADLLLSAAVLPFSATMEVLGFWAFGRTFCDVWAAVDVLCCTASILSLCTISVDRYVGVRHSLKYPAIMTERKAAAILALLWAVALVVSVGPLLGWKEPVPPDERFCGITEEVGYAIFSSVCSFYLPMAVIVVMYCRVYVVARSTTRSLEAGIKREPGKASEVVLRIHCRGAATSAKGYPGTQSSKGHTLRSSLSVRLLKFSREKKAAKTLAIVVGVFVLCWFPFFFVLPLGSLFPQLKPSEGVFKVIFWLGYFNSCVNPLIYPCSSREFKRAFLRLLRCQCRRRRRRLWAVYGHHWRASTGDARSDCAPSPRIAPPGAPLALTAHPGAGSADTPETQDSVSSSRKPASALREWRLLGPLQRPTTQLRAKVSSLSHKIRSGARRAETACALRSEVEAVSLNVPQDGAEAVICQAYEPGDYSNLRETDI
T1 sequence (P43140 whole entry): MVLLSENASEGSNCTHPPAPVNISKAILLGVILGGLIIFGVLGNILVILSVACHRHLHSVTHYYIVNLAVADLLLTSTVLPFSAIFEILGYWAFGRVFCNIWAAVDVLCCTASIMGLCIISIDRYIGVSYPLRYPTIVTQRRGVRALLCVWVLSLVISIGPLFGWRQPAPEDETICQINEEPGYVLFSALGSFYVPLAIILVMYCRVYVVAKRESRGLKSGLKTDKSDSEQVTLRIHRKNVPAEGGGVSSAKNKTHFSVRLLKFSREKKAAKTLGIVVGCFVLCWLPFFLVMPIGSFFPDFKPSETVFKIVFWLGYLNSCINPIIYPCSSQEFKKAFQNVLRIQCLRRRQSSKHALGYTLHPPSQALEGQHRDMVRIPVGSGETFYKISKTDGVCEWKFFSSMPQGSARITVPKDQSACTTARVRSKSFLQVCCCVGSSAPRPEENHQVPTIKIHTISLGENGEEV
The assay can be described thus: Inhibition of binding of [3H]prazosin to Alpha-1 adrenergic receptor in rat cortical membranes.

In assay [2] the target is T2, Adrenergic receptor alpha-2 (Rattus norvegicus, UniProt P22086+P19328+P22909).
T2 sequence (P22086 whole entry): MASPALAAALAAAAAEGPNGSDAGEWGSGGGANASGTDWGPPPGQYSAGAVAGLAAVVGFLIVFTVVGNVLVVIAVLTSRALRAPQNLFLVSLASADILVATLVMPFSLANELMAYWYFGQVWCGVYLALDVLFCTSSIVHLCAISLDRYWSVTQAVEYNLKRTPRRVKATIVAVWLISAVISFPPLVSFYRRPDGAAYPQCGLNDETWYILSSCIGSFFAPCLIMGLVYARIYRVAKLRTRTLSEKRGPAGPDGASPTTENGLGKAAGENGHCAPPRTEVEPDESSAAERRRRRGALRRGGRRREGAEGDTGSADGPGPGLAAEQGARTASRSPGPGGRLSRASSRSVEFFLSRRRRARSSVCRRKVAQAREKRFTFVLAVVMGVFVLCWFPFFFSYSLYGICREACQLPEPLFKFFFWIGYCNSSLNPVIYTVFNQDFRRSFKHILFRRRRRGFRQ
T2 sequence (P19328 whole entry): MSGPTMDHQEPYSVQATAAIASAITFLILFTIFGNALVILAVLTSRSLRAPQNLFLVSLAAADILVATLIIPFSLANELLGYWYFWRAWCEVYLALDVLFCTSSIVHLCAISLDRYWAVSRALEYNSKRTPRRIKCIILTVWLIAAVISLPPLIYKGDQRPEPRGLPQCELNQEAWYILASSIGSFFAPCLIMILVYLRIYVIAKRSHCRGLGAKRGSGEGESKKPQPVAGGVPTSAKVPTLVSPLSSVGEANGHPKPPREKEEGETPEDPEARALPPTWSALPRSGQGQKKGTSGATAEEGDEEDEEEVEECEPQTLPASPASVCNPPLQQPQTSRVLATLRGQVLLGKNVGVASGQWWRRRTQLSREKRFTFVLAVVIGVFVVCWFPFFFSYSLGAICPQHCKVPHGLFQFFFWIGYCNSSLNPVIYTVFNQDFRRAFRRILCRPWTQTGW
T2 sequence (P22909 whole entry): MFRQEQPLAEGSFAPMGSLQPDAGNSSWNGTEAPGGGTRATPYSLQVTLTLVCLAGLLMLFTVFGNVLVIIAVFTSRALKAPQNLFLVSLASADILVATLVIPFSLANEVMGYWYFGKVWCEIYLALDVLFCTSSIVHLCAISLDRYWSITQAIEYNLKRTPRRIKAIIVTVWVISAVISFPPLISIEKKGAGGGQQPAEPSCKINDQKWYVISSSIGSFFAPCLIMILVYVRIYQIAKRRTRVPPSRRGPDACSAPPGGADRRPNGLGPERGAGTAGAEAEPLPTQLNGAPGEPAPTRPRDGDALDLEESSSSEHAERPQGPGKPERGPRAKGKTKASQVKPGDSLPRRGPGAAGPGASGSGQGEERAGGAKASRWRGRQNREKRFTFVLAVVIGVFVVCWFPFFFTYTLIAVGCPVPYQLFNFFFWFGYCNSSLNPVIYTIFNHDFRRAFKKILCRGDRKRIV
In words: Inhibition of binding of [3H]rauwolscine to Alpha-2 adrenergic receptor in rat cortical membranes.

Assay [3] addresses T3, D(1A) dopamine receptor (Rattus norvegicus, UniProt P18901). In words: Inhibition of binding of [3H]SCH-23390 to Dopamine receptor D1 in rat striatal membranes at 5 uM concentration; NA is not active.
For assay [4], the target named is T4, D(2) dopamine receptor (Rattus norvegicus, UniProt P61169). The assay can be described thus: Inhibition of binding of [3H]spiroperidol to Dopamine receptor D2 in rat striatal membranes at 5 uM concentration; NA is not active.
Assay [5] deals with T3, D(1A) dopamine receptor. In words: Inhibition of binding of [3H]SCH-23390 to Dopamine receptor D1 in rat striatal membranes.
In assay [6] the target is T4, D(2) dopamine receptor. In words: Inhibition of binding of [3H]spiroperidol to Dopamine receptor D2 in rat striatal membranes.

T3 sequence (P18901 whole entry): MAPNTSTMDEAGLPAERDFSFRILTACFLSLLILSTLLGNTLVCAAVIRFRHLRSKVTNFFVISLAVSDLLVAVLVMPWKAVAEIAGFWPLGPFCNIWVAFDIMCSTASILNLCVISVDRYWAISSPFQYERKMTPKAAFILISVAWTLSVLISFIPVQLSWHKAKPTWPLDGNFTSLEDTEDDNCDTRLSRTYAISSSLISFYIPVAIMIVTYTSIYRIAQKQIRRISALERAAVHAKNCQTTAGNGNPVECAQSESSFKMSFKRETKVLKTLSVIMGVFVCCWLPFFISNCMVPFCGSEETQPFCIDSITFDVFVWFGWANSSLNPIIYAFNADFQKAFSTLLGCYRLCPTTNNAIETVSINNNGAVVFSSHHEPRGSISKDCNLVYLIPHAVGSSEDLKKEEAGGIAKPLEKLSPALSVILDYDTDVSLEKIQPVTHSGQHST
T4 sequence (P61169 whole entry): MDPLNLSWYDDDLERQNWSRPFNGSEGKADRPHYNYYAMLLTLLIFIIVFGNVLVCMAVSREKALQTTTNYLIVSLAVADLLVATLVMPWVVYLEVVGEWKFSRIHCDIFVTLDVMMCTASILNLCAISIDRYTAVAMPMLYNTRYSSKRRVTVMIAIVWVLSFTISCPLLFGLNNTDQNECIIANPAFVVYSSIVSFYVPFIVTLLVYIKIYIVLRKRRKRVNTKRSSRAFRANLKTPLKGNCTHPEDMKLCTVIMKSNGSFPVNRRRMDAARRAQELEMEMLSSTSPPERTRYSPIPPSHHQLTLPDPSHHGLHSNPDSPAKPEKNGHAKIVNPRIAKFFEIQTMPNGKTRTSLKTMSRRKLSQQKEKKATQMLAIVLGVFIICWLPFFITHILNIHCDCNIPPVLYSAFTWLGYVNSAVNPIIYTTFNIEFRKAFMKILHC

Turning to `COc1cccc2c1CC1CCCN(Cc3ccccc3)C1C2` (stereo in doubt; cis), the IC50 is 667 µM in assay [1], 38 µM in assay [2], “Not Active” at D(1A) dopamine receptor [3] and “Not Active” at D(2) dopamine receptor [4].

Regarding `COc1cccc2c1CC1CCCN(Cc3ccccc3)C1C2` (stereo in doubt; trans), the results for the IC50 (in assay [1]; in assay [2]; on D(1A) dopamine receptor [5]) were 588 µM, 6 µM and 0.45 µM, respectively.

`COc1cccc2c1CC1CCCNC1C2` (trans isomer): the IC50 in assay [2] was 67.5 µM; at D(1A) dopamine receptor [3], “Not Active”; at D(2) dopamine receptor [4] it was “Not Active”.

Regarding `c1ccc2c(c1)CC1CCCNC1C2` (stereo unspecified), the IC50 in assay [2] is 130 µM; on D(1A) dopamine receptor [3] it was “Not Active”; at D(2) dopamine receptor [4], “Not Active”.

The compound `NC1CCc2c(ccc(O)c2O)C1` (racemic) had an IC50 on D(2) dopamine receptor [6] of 0.7 µM.

With `c1ccc(CN2CCCC3Cc4ccccc4CC32)cc1` (stereo in doubt; cis), the IC50 in assay [1] was 739 µM; in assay [2] it was 214 µM; at D(1A) dopamine receptor [3], “Not Active”.

On to `c1ccc(CN2CCCC3Cc4ccccc4CC32)cc1` (stereo in doubt; trans), for which the IC50 is 218 µM in assay [1], 5.9 µM in assay [2], 1.2 µM at D(1A) dopamine receptor [5] and “Not Active” on D(2) dopamine receptor [4].
